PubChem BioAssay (NCI)
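Results reflect a 48-hour exposure of cells in 96-well plates to compound at five concentrations. At the GI50, growth is halved. TGI is the concentration that stops growth completely.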

What follows are compounds tested on DLD-1 colon (assay: inhibition of tumour cell growth, NCI panel, 48 h).
`O=c1[nH]cc(COCC(F)(F)C(F)(F)C(F)(F)C(F)F)c(=O)[nH]1` was tested, and the TGI was > 100 µM. `NC1CCCC[C@H]1N.N[C@@H]1CCCC[C@@H]1N.O=C(P(=O)([O-])[O-])P(=O)([O-])[O-].[Pt+4].[Pt+4]` was tested, and the GI50 was > 100 µM and the TGI was > 100 µM. With `CC1=C(C(=O)Nc2c(C)cccc2C)C(c2ccccc2Cl)C(C(=O)Nc2c(C)cccc2C)=C(C)N1` the TGI was > 100 µM. With `N#CC(NNC(=O)Cc1ccccc1)c1ccccc1O` (configuration not stated) the TGI was > 100 µM. `COc1c(C)c2c(c(C)c1Cl)Oc1c(C=O)c(O)c(Cl)c(C)c1C(=O)O2` was tested, and the TGI was > 100 µM.

What follows are compounds tested on DMS 114 small cell lung (assay: inhibition of tumour cell growth, NCI panel, 48 h).
In the case of `Cc1cn(C2CC(N(O)Cc3ccccc3)C(CO)O2)c(=O)[nH]c1=O` (configuration not stated), the TGI is reported as > 100 µM. With `O=c1[nH]cc(COCC(F)(F)C(F)(F)C(F)(F)C(F)F)c(=O)[nH]1` the TGI was > 100 µM. `CC1=C(C(=O)Nc2c(C)cccc2C)C(c2ccccc2Cl)C(C(=O)Nc2c(C)cccc2C)=C(C)N1` was tested, and the TGI was > 100 µM. For `COc1c(C)c2c(c(C)c1Cl)Oc1c(C=O)c(O)c(Cl)c(C)c1C(=O)O2`, the TGI was 79.1 µM.

These compounds were tested on DMS 273 small cell lung (assay: inhibition of tumour cell growth, NCI panel, 48 h).
With `Cc1cn(C2CC(N(O)Cc3ccccc3)C(CO)O2)c(=O)[nH]c1=O` (configuration not stated) the TGI was > 100 µM. `NC1CCCC[C@H]1N.N[C@@H]1CCCC[C@@H]1N.O=C(P(=O)([O-])[O-])P(=O)([O-])[O-].[Pt+4].[Pt+4]` was tested, and the GI50 was 32.3 µM and the TGI was > 100 µM. In the case of `CC1=C(C(=O)Nc2c(C)cccc2C)C(c2ccccc2Cl)C(C(=O)Nc2c(C)cccc2C)=C(C)N1`, the TGI is reported as > 100 µM. In the case of `N#CC(NNC(=O)Cc1ccccc1)c1ccccc1O` (configuration not stated), the TGI is reported as > 100 µM. With `COc1c(C)c2c(c(C)c1Cl)Oc1c(C=O)c(O)c(Cl)c(C)c1C(=O)O2` the TGI was 70.5 µM.

These compounds were tested on DU-145 prostate (assay: inhibition of tumour cell growth, NCI panel, 48 h).
For `N#CC(NNC(=O)Cc1ccccc1)c1ccccc1O` (configuration not stated), the TGI was > 74.6 µM.

These compounds were tested on EKVX NSCLC (assay: inhibition of tumour cell growth, NCI panel, 48 h).
With `Cc1cn(C2CC(N(O)Cc3ccccc3)C(CO)O2)c(=O)[nH]c1=O` (configuration not stated) the TGI was > 100 µM. For `O=c1[nH]cc(COCC(F)(F)C(F)(F)C(F)(F)C(F)F)c(=O)[nH]1`, the TGI was > 100 µM. With `NC1CCCC[C@H]1N.N[C@@H]1CCCC[C@@H]1N.O=C(P(=O)([O-])[O-])P(=O)([O-])[O-].[Pt+4].[Pt+4]` the GI50 was > 100 µM and the TGI was > 100 µM. `CC1=C(C(=O)Nc2c(C)cccc2C)C(c2ccccc2Cl)C(C(=O)Nc2c(C)cccc2C)=C(C)N1` was tested, and the TGI was > 100 µM. In the case of `N#CC(NNC(=O)Cc1ccccc1)c1ccccc1O` (configuration not stated), the TGI is reported as > 100 µM. In the case of `COc1c(C)c2c(c(C)c1Cl)Oc1c(C=O)c(O)c(Cl)c(C)c1C(=O)O2`, the TGI is reported as 46.2 µM.

The compounds below were run on HCC-2998 colon (assay: inhibition of tumour cell growth, NCI panel, 48 h).
For `Cc1cn(C2CC(N(O)Cc3ccccc3)C(CO)O2)c(=O)[nH]c1=O` (configuration not stated), the TGI was > 100 µM. `O=c1[nH]cc(COCC(F)(F)C(F)(F)C(F)(F)C(F)F)c(=O)[nH]1` was tested, and the TGI was > 100 µM. In the case of `NC1CCCC[C@H]1N.N[C@@H]1CCCC[C@@H]1N.O=C(P(=O)([O-])[O-])P(=O)([O-])[O-].[Pt+4].[Pt+4]`, the GI50 is reported as > 100 µM and the TGI is reported as > 100 µM. For `CC1=C(C(=O)Nc2c(C)cccc2C)C(c2ccccc2Cl)C(C(=O)Nc2c(C)cccc2C)=C(C)N1`, the TGI was > 100 µM. In the case of `N#CC(NNC(=O)Cc1ccccc1)c1ccccc1O` (configuration not stated), the TGI is reported as 56.1 µM. For `COc1c(C)c2c(c(C)c1Cl)Oc1c(C=O)c(O)c(Cl)c(C)c1C(=O)O2`, the TGI was 69.8 µM.

What follows are compounds tested on HCT-116 colon (assay: inhibition of tumour cell growth, NCI panel, 48 h).
`Cc1cn(C2CC(N(O)Cc3ccccc3)C(CO)O2)c(=O)[nH]c1=O` (configuration not stated) was tested, and the TGI was > 100 µM. For `O=c1[nH]cc(COCC(F)(F)C(F)(F)C(F)(F)C(F)F)c(=O)[nH]1`, the TGI was > 100 µM. In the case of `NC1CCCC[C@H]1N.N[C@@H]1CCCC[C@@H]1N.O=C(P(=O)([O-])[O-])P(=O)([O-])[O-].[Pt+4].[Pt+4]`, the GI50 is reported as 83.8 µM and the TGI is reported as > 100 µM. With `N#CC(NNC(=O)Cc1ccccc1)c1ccccc1O` (configuration not stated) the TGI was > 100 µM. `COc1c(C)c2c(c(C)c1Cl)Oc1c(C=O)c(O)c(Cl)c(C)c1C(=O)O2` gave a TGI of 61.9 µM.

The compounds below were run on HCT-15 colon (assay: inhibition of tumour cell growth, NCI panel, 48 h).
In the case of `Cc1cn(C2CC(N(O)Cc3ccccc3)C(CO)O2)c(=O)[nH]c1=O` (configuration not stated), the TGI is reported as > 100 µM. For `O=c1[nH]cc(COCC(F)(F)C(F)(F)C(F)(F)C(F)F)c(=O)[nH]1`, the TGI was > 100 µM. For `NC1CCCC[C@H]1N.N[C@@H]1CCCC[C@@H]1N.O=C(P(=O)([O-])[O-])P(=O)([O-])[O-].[Pt+4].[Pt+4]`, the GI50 was 63.8 µM and the TGI was > 100 µM. `N#CC(NNC(=O)Cc1ccccc1)c1ccccc1O` (configuration not stated) was tested, and the TGI was > 100 µM.

What follows are compounds tested on HL-60(TB) leukemia (assay: inhibition of tumour cell growth, NCI panel, 48 h).
For `Cc1cn(C2CC(N(O)Cc3ccccc3)C(CO)O2)c(=O)[nH]c1=O` (configuration not stated), the TGI was > 100 µM. With `O=c1[nH]cc(COCC(F)(F)C(F)(F)C(F)(F)C(F)F)c(=O)[nH]1` the TGI was > 100 µM. In the case of `NC1CCCC[C@H]1N.N[C@@H]1CCCC[C@@H]1N.O=C(P(=O)([O-])[O-])P(=O)([O-])[O-].[Pt+4].[Pt+4]`, the GI50 is reported as 18.3 µM and the TGI is reported as > 100 µM. With `CC1=C(C(=O)Nc2c(C)cccc2C)C(c2ccccc2Cl)C(C(=O)Nc2c(C)cccc2C)=C(C)N1` the TGI was > 100 µM.
